Results: the NIST ThermoML archive (doi:10.1016/j.tca.2011.06.003)

Assay: xn = mol fraction of the nth substance listed
Details: 101 kPa, Liquid; for mass density: Vibrating tube method; for speed of sound: Sing-around technique in a fixed-path interferometer

NCCNCCN [di(2-aminoethyl)amine] + CCCCO
Details	mass density, 298.15 K [kg/m3]	mass density, 303.15 K [kg/m3]	speed of sound, 303.15 K [m/s]	viscosity, 298.15 K [mPa·s]
x1 = 0.0517	–	814.209	1254.2	3.066
x1 = 0.1085	–	826.401	1285.9	3.551
x1 = 0.153	–	835.096	1309.9	3.907
x1 = 0.2024	848.068	844.036	1335.1	4.256
x1 = 0.2524	856.54	852.484	1359.6	4.526
x1 = 0.3079	865.207	861.136	1385.5	4.772
x1 = 0.4082	879.335	875.244	1429.3	5.076
x1 = 0.5013	891.374	–	1467.1	5.214
x1 = 0.6067	904.038	–	1507.7	5.317
x1 = 0.7079	915.617	–	1545.1	5.331
x1 = 0.8	925.474	–	1579.2	5.368
x1 = 0.8548	931.448	–	1598.6	5.433
x1 = 0.9075	936.842	–	1617.5	5.485
x1 = 0.9525	941.233	–	1633.6	5.562
